In patent US11667602B2, “Compounds and their use” (AstraZeneca AB, priority 2020, dated 2023):
pEC50: −log10 of the molar value. Like-named read-outs stand apart in the source and are kept apart here.

Target: T1, human RXFP1 (Homo sapiens, UniProt Q9HBX9)
T1 sequence (Q9HBX9 1-757): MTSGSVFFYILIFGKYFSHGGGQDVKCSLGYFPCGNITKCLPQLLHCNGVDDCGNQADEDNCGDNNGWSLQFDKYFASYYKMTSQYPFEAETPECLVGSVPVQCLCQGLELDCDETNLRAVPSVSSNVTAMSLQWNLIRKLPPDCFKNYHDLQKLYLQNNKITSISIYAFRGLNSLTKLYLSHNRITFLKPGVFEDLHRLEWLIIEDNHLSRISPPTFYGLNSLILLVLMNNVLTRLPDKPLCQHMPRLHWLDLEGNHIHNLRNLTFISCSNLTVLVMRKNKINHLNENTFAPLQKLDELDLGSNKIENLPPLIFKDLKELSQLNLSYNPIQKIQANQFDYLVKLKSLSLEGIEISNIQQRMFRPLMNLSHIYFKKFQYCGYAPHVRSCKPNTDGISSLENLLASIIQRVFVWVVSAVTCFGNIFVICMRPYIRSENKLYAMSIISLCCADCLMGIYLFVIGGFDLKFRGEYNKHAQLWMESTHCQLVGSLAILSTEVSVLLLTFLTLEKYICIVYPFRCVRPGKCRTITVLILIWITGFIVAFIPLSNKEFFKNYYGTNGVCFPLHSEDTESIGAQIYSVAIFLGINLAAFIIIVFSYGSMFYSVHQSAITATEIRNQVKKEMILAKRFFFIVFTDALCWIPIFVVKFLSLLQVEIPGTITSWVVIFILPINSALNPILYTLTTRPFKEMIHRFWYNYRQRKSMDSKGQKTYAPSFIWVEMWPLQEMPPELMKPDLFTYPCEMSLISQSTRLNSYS
Assay: RXFP1 Hu cAMP (Test A)
Assay type: cell-based
Parameters: expressed in transfected cells; host or cells: Jump-In T-REx CHO-K1 cells (ThermoFisher), induced with 10 ng/ml doxycycline for 24 h
How it was run: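 CHO-K1 (Jump-In T-REx), RXFP1 induced w/ 10 ng/ml doxycycline 24 h, cryopreserved. 0.5 mM IBMX final. cAMP by HTRF, 2 h RT, std curve.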

[1] = RXFP1 Hu cAMP, read-out: Test A EC50

Test A Sinf (RXFP1 Hu cAMP) | pEC50 [1] | Molecule | pEC50 (Test A EC50, RXFP1 Hu cAMP)
101% | 5.27 | COc1cc(F)c(O[C@H]2CC[C@@](C)(C(=O)O)CC2)cc1C(=O)N[C@@H]1CCCO[C@@H]1C(=O)Nc1cccc(S(=O)(=O)C(F)(F)F)c1 [Example 357] | 
116% | 6.24 | COc1cc(F)c(O[C@H]2CC[C@@](C)(C(=O)O)CC2)cc1C(=O)N[C@@H]1[C@H]2CC[C@H](C2)[C@@H]1C(=O)NCC1(C#N)CCC1 [Example 595] | 
104% | 6.74 | COc1cc(C#N)c(O[C@H]2CC[C@@](C)(C(=O)O)CC2)cc1C(=O)N[C@@H]1[C@H]2CC[C@H](C2)[C@@H]1C(=O)NC1CC(F)(F)C1 [Example 623] | 
68% |  | COc1cc(F)c(-c2ccc(O)c(C(=O)O)c2)cc1C(=O)N[C@H]1[C@@H]2CC[C@@H](C2)[C@H]1C(=O)Nc1cccc(S(=O)(=O)C(F)(F)F)c1 (single isomer, unassigned) [Example 557] | 
 | < 4.40 | COc1cc(F)c(OC2CCC(CO)(C(=O)O)CC2)cc1C(=O)NC1CC(OC)CC1C(=O)NCC1(C)CCC1 (single isomer, unassigned) [Example 550, (1R,4s)-4-(2-Fluoro-4-methoxy-5-(((1S*,2R*,4R*)-4-methoxy-2-(((1-methylcyclobutyl)methyl)carbamoyl)cyclopentyl)carbamoyl)phenoxy)-1-(hydroxymethyl)cyclohexane-1-carboxylic acid] | 
104% | 8.11 | COC[C@]1(C(=O)O)CC[C@@H](Oc2cc(C(=O)N[C@@H]3[C@@H]4CC[C@@H](C4)[C@@H]3C(=O)Nc3cccc(S(=O)(=O)C(F)(F)F)c3)c(OC)cc2F)CC1 [Example 479] | 
 | < 4.40 | COc1cc(F)c(-c2ccc(C(=O)O)cc2)cc1C(=O)N[C@H]1[C@@H]2CC[C@@H](C2)[C@H]1C(=O)Nc1ccc(F)c(C(F)(F)F)c1 (single isomer, unassigned) [Example 590] | 
103% |  | COc1cc(F)c(O[C@H]2CC[C@@](CO)(C(=O)O)CC2)cc1C(=O)N[C@H]1[C@@H](C(=O)NCC2(C)CCC2)[C@H]2CC[C@@H]1O2 (racemic) [Example 332] | 
 | < 4.40 | COc1cc(F)c(O[C@H]2CC[C@@](C)(C(=O)O)CC2)cc1C(=O)N[C@@H]1COC[C@@H]1C(=O)NCC(C)(C)C (racemic) [Example 345] | 
95% |  | COC(=O)[C@]1(C(=O)O)CC[C@@H](Oc2cc(C(=O)N[C@@H]3[C@H]4CC[C@H](C4)[C@@H]3C(=O)NCC3(C)CCC3)c(OC(C)C)cc2F)CC1 [Example 485, (1R,4r)-4-(2-Fluoro-4-isopropoxy-5-(((1S,2R,3S,4R)-3-(((1-methylcyclobutyl)methyl)carbamoyl)bicyclo[2.2.1]heptan-2-yl)carbamoyl)phenoxy)-1-(methoxycarbonyl)cyclohexane-1-carboxylic acid] | 
112% | 7.89 | COc1cc(F)c(O[C@H]2CC[C@@](OC)(C(=O)O)CC2)cc1C(=O)N[C@@H]1[C@@H]2CC[C@@H](C2)[C@@H]1C(=O)Nc1cccc(S(=O)(=O)C(F)(F)F)c1 [Example 508, (1R,4r)-4-(2-Fluoro-4-methoxy-5-(((1R,2R,3S,4S)-3-((3-((trifluoromethyl)sulfonyl)phenyl)carbamoyl)bicyclo[2.2.1]heptan-2-yl)carbamoyl)phenoxy)-1-methoxycyclohexane-1-carboxylic acid] | 
86% | 6.70 | COc1cc(F)c(O[C@H]2CC[C@@](C)(C(=O)O)CC2)cc1C(=O)N[C@@H]1CCOC[C@@H]1C(=O)Nc1cccc(S(=O)(=O)C(F)(F)F)c1 (racemic) [Example 341] | 
 | < 4.40 | COc1cc(F)c(O[C@H]2CC[C@@](C)(C(=O)O)CC2)cc1C(=O)NC1COCC1C(=O)NCC(C)(C)C (single isomer, unassigned) [Example 566, (1R,4s)-4-(2-Fluoro-4-methoxy-5-(((3S*,4R*)-4-(neopentylcarbamoyl)tetrahydrofuran-3-yl)carbamoyl)phenoxy)-1-methylcyclohexane-1-carboxylic acid] | 

Further lines, the molecule ahead of its results:

Molecule | Test A Sinf (RXFP1 Hu cAMP) | pEC50 [1] | pEC50 (Test A EC50, RXFP1 Hu cAMP)
COc1cc(F)c(-c2ccc(C(=O)O)cc2)cc1C(=O)N[C@H]1[C@@H]2CC[C@@H](C2)[C@H]1C(=O)N[C@H]1CCCN(S(=O)(=O)C(F)(F)F)C1 (single isomer, unassigned) [Example 314, 2′-Fluoro-4′-methoxy-5′-(((1R*,2S*,3R*,4S*)-3-(((S)-1-((trifluoromethyl)sulfonyl)piperidin-3-yl)carbamoyl)bicyclo[2.2.1]heptan-2-yl)carbamoyl)-[1,1′-biphenyl]-4-carboxylic acid] | 74% | 5.11 | 
COc1cc(F)c(-c2cccc(C(=O)O)c2)cc1C(=O)N[C@@H]1CCC[C@@H]1C(=O)Nc1cccc(S(=O)(=O)C(F)(F)F)c1 (racemic) [Example 300] | 78% | 5.41 | 
COc1cc(C#N)c(O[C@H]2CC[C@@](C)(C(=O)O)CC2)cc1C(=O)Nc1cc(Cl)ccc1C(=O)NC12CC(C1)C2 [Example 161] | 170% | 6.89 | 
COc1cc(C#N)c(O[C@H]2CC[C@@](C)(C(=O)O)CC2)cc1C(=O)N[C@@H]1[C@H]2CC[C@H](C2)[C@@H]1C(=O)NCC(C)(C)OC [Example 129] | 107% | 6.62 | 
(1R,4s)-4-(2-Cyano-4-methoxy-5-(((1R*,2S*,3R*,4S*)-3-(((1-methylcyclobutyl)methyl)carbamoyl)bicyclo[2.2.2]oct-5-en-2-yl)carbamoyl)phenoxy)-1-methylcyclohexane-1-carboxylic acid [Example 541] | 100% |  | 
COc1cc(C#N)c(OC2CCC(C)(C(=O)O)CC2)cc1C(=O)NC1C(C(=O)NCC2(C)CCC2)C2CCC1N2CCC(F)(F)F (single isomer, unassigned) [Example 537, (1R,4s)-4-(2-Cyano-4-methoxy-5-(((1S*,2S*,3R*,4R*)-3-(((1-methylcyclobutyl)methyl)carbamoyl)-7-(3,3,3-trifluoropropyl)-7-azabicyclo[2.2.1]heptan-2-yl)carbamoyl)phenoxy)-1-methylcyclohexane-1-carboxylic acid] | 77% | 5.22 | 
COc1cc(C#N)c(O[C@H]2CC[C@@](C)(C(=O)O)CC2)cc1C(=O)N[C@@H]1[C@H]2CC[C@H](C2)[C@@H]1C(=O)NC[C@H]1C[C@@H](C)C1 [Example 124] | 101% | 6.80 | 
(1R,4s)-4-(2-fluoro-5-(((1S*,2S*,3R*,4R*)-3-((4-fluoro-3-(pentafluoro-λ6-sulfaneyl)phenyl)carbamoyl)bicyclo[2.2.1]heptan-2-yl)carbamoyl)-4-methoxyphenoxy)-1-methylcyclohexane-1-carboxylic acid [Example 521] | 99% |  | 
COc1cc(C#N)c(O[C@H]2CC[C@@](C)(C(=O)O)CC2)cc1C(=O)N[C@H]1[C@@H](C(=O)NCC2(C)CCC2)[C@H]2CC[C@@H]1N2C(=O)OC(C)(C)C (racemic) [Example 334] | 96% |  | 8.37
COc1cc(F)c(-c2ccc(C(=O)O)cc2)cc1C(=O)N[C@H]1[C@@H](C(=O)Nc2ccc(F)c(C(F)(F)F)c2)[C@@H]2C=C[C@H]1C2 (racemic) [Example 307, rac-2′-Fluoro-5′-(((1R,2R,3S,4S)-3-((4-fluoro-3-(trifluoromethyl)phenyl)carbamoyl)bicyclo[2.2.1]hept-5-en-2-yl)carbamoyl)-4′-methoxy-[1,1′-biphenyl]-4-carboxylic acid] | 90% | 6.74 | 
COc1cc(F)c(Cn2ccc(C(=O)O)n2)cc1C(=O)N[C@@H]1[C@H]2CC[C@H](C2)[C@@H]1C(=O)Nc1cccc(S(=O)(=O)C(F)(F)F)c1 [Example 222, 1-(2-Fluoro-4-methoxy-5-(((1S,2R,3S,4R)-3-((3-((trifluoromethyl)sulfonyl)phenyl)carbamoyl)bicyclo[2.2.1]heptan-2-yl)carbamoyl)benzyl)-1H-pyrazole-3-carboxylic acid] |  | < 4.40 | 
COc1cc(C(F)(F)F)c(O[C@H]2CC[C@@](C)(C(=O)O)CC2)cc1C(=O)N[C@@H]1[C@H]2CC[C@H](C2)[C@@H]1C(=O)NCC1(C)CCC1 [Example 372] | 96% |  | 7.68
COc1cc(F)c(-c2ccc(O)c(C(=O)O)c2)cc1C(=O)N[C@@H]1[C@H]2CC[C@H](C2)[C@@H]1C(=O)Nc1cccc(S(=O)(=O)C(F)(F)F)c1 (racemic) [Example 316, rac-2′-Fluoro-4-hydroxy-4′-methoxy-5′-(((1R,2S,3R,4S)-3-((3-((trifluoromethyl)sulfonyl)phenyl)carbamoyl)bicyclo[2.2.1]heptan-2-yl)carbamoyl)-[1,1′-biphenyl]-3-carboxylic acid] | 107% | 6.49 | 
